From ChEMBL document CHEMBL1145718, “Two new nitrogenous sesquiterpenes from the sponge Axinyssa aplysinoides” (1997)

Assays:
Type in all cases: functional
[1] = tested on: Saccharomyces cerevisiae; experiment: DNA damaging activity against wild type yeast assessed as drug level required to produce 12 mm zone of inhibition assessed per 100 uL
[2] = tested on: Saccharomyces cerevisiae; experiment: DNA damaging activity against DNA repair-deficient delta RAD52 mutant yeast assessed as drug level required to produce 12 mm zone of inhibition assessed per 100 uL
[3] = tested on: Saccharomyces cerevisiae; experiment: DNA damaging activity against DNA repair-deficient delta RAD52/delta TOP1 mutant yeast assessed as drug level required to produce 12 mm zone of inhibition assessed per 100 uL

Row | Structure (SMILES) | IC12 [1] | IC12 [2] | IC12 [3]
1 | CC(C)[C@@H]1C[C@@H]2C(C)(NC(=O)NCCc3ccccc3)[C@H]3C[C@@H]1C[C@]2(C)C3 (stereo partly specified) | 14 µg | 45 µg | 12 µg
2 | CC(C)[C@@H]1C[C@@H]2C(C)(NC=O)[C@H]3C[C@@H]1C[C@]2(C)C3 (stereo partly specified) | 31 µg | 51 µg | 4.8 µg
